From patent publication US20070021434A1, “NON-NUCLEOSIDE ANTI-HEPACIVIRUS AGENTS AND USES THEREOF” (Migenix Inc., priority 2005, published 2007) come the findings set out here.

The test concerns the target HCV RdRp (NS5B) (UniProt P26663). The class given is biochemical, hepatitis C virus.

HCV RdRp (NS5B), sequence (P26663 whole entry, looked up): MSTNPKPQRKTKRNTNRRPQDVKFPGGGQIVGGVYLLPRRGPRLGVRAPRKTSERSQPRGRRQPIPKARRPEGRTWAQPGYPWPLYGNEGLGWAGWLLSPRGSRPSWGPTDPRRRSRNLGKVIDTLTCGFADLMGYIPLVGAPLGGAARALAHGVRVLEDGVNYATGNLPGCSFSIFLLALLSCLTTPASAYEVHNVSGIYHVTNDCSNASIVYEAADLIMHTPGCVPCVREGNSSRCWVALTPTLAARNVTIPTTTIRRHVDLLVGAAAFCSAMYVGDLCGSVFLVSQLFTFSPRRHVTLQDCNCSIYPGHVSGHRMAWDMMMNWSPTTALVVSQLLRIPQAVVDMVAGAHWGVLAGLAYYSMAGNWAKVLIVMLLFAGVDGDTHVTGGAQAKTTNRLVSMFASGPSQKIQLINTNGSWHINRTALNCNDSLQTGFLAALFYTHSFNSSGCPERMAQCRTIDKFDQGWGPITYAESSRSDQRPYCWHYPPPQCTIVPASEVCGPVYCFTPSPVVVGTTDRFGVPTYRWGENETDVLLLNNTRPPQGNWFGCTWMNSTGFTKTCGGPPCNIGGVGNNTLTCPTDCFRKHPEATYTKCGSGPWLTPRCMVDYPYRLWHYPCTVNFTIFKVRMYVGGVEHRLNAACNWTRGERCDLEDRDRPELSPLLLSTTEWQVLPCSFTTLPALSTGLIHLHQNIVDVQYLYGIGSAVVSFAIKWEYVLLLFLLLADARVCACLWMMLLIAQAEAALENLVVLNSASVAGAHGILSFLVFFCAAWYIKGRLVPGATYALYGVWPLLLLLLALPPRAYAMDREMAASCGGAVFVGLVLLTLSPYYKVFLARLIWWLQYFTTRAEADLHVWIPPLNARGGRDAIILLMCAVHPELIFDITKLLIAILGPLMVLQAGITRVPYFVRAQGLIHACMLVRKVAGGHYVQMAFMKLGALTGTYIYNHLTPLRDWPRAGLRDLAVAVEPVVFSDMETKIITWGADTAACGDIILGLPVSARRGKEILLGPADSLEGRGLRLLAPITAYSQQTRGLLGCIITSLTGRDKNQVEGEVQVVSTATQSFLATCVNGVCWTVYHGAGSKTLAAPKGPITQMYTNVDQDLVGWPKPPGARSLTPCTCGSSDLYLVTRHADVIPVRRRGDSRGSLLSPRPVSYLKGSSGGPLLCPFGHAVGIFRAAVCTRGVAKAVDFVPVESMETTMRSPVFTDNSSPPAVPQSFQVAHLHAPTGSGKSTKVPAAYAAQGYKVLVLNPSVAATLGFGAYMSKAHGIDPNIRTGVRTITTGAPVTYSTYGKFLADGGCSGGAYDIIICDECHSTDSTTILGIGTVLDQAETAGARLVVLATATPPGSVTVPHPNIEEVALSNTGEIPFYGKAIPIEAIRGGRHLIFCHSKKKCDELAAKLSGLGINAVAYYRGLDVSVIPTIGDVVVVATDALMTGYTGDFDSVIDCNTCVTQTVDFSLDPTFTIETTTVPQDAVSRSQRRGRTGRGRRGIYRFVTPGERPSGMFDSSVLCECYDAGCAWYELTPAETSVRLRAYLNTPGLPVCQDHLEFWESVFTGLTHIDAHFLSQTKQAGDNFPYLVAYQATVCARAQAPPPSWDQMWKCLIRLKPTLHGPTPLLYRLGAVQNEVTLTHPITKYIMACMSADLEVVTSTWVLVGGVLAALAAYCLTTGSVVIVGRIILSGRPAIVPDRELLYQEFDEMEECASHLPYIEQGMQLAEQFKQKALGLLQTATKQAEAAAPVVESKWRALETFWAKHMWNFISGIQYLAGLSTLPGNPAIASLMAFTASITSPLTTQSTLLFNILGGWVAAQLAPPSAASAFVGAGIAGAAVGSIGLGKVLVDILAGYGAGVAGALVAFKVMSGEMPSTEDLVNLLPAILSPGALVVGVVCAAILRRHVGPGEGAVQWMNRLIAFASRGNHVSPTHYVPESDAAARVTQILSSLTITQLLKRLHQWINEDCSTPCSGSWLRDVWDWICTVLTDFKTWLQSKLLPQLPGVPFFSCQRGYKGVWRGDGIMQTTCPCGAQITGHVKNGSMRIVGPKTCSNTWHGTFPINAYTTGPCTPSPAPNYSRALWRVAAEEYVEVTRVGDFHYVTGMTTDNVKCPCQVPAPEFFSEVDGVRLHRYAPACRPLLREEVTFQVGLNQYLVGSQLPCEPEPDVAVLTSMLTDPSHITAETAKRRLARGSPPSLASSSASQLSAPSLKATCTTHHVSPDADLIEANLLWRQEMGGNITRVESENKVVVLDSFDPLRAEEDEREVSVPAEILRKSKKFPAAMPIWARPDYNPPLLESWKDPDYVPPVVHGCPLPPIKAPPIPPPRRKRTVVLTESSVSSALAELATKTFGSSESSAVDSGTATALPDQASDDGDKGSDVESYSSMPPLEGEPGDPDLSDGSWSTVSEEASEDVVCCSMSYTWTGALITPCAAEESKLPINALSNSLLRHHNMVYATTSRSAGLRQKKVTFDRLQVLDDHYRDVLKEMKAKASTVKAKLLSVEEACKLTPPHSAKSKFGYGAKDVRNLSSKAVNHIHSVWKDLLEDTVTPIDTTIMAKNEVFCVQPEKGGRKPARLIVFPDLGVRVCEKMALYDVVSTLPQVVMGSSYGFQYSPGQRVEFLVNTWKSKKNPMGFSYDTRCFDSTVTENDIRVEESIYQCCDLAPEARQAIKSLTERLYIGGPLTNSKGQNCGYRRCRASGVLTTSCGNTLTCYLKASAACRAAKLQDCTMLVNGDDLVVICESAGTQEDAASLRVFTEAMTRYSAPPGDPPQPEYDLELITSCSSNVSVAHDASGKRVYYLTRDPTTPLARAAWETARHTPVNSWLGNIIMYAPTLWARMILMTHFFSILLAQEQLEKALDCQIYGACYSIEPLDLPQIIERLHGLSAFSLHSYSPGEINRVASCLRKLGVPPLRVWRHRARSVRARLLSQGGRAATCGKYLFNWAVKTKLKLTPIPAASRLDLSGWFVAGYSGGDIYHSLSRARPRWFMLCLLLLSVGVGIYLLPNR

For `Cc1ccc(NC(=O)C(CCNC(=O)CN)NC(=O)OCC2c3ccccc3-c3ccccc32)cc1` [Compound 221, (S)-[3-(2-AMINO-ACETYLAMINO)-1-P-TOLYLCARBAMOYL-PROPYL]-CARBAMIC ACID 9H-FLUOREN-9-YLMETHYL ESTER], the concentration for half-maximal inhibition (IC50) was > 50 µM.
As for `CC(C)(C)OC(=O)NCCCC[C@H](NC(=O)OCC1c2ccccc2-c2ccccc21)C(=O)NCCc1c[nH]c2ccccc12` [Compound 56, (S)-{5-((9H-FLUOREN-9-YLMETHOXYCARBONYL)AMINO)-5-[2-(1H-INDOL-3-YL)-ETHYLCARBAMOYL]-PENTYL}-CARBAMIC ACID TERT-BUTYL ESTER], the half-inhibitory concentration (IC50) was > 50 µM.
Turning to `Cc1cc2cc(NC(=O)[C@H](Cc3ccc(CN)cc3)NC(=O)Nc3ccc(OCc4ccccc4)cc3)ccc2[nH]1` [Compound 227, (S)-3-(4-AMINOMETHYL-PHENYL)-2-[3-(4-BENZYLOXY-PHENYL)-UREIDO]-N-(2-METHYL-1H-INDOL-5-YL)-PROPIONAMIDE], the half-maximal inhibitory concentration (IC50) was < 10 µM.
For the compound `CC(C)(C)c1ccc(NC(=O)[C@H](Cc2ccc(CN)cc2)NC(=O)Nc2ccc(OCc3ccccc3)cc2)cc1` [Compound 174, (S)-3-(4-AMINOMETHYL-PHENYL)-2-[3-(4-BENZYLOXY-PHENYL)-UREIDO]-N-(4-TERT-BUTYL-PHENYL)-PROPIONAMIDE], the IC50 was < 10 µM.
In the case of `COC(=O)C(Cc1c[nH]c2ccccc12)NC(=O)[C@H](CCCCN)NC(=O)OCC1c2ccccc2-c2ccccc21` (mixture of isomers) [Compound 55, (+/−)-2-[6-AMINO-2-(S)-((9H-FLUOREN-9-YLMETHOXYCARBONYL)AMINO)-HEXANOYL-AMINO]-3-(1H-INDOL-3-YL)-PROPIONIC ACID METHYL ESTER], the IC50 was > 50 µM.
Regarding `Cc1ccc(NC(=O)C(CCC(=O)O)NC(=O)OCC2c3ccccc3-c3ccccc32)cc1` [Compound 372, (S)-4-(9H-FLUOREN-9-YLMETHOXYCARBONYLAMINO)-4-P-TOLYLCARBAMOYL-BUTYRIC ACID], the IC50 was > 50 µM.
As for `Cc1ccc(NC(=O)[C@H](CCCCN)NC(=O)Nc2ccc(OCc3cc(F)cc(F)c3)cc2)cc1` [Compound 256, (S)-6-AMINO-2-{3-[4-(3,5-DIFLUORO-BENZYLOXY)-PHENYL]-UREIDO}-HEXANOIC ACID P-TOLYLAMIDE], the IC50 is > 50 µM.
The compound `Cc1ccc(NC(=O)[C@H](CCCCN)NC(=O)Nc2ccc(OCc3ccccc3)cc2)cc1C` [Compound 254, (S)-6-AMINO-2-[3-(4-BENZYLOXY-PHENYL)-UREIDO]-HEXANOIC ACID (3,4-DIMETHYL-PHENYL)-AMIDE] had an IC50 of 10 to 50 µM.
For the compound `O=C(Nc1ccc(C2CCCCC2)cc1)C1CN(C(=O)OCC2c3ccccc3-c3ccccc32)CCN1` (stereo not drawn) [Compound 157, 3-(4-CYCLOHEXYL-PHENYLCARBAMOYL)-PIPERAZINE-1-CARBOXYLIC ACID 9H-FLUOREN-9-YLMETHYL ESTER], the IC50 is > 50 µM.
`Cc1ccc(NC(=O)[C@H](CCCCO)NC(=O)Nc2ccc(OCc3ccccc3)cc2)cc1` [Compound 309, (S)-2-[3-(4-BENZYLOXY-PHENYL)-UREIDO]-6-HYDROXY-HEXANOIC ACID P-TOLYLAMIDE]: the IC50 is > 50 µM.
For `CC(C)(C)c1ccc(NC(=O)[C@H](Cc2ccc(CN)cc2)NC(=O)NCc2ccccc2)cc1` [Compound 148, (S)-3-(4-AMINOMETHYL-PHENYL)-2-(3-BENZYL-UREIDO)-N-(4-TERT-BUTYL-PHENYL)-PROPIONAMIDE] the value was > 50 µM.
On to `CCNCC(=O)NCCCC(NC(=O)OCC1c2ccccc2-c2ccccc21)C(=O)Nc1ccc(C)cc1` [Compound 242, (S)-[4-(2-ETHYLAMINO-ACETYLAMINO)-1-P-TOLYLCARBAMOYL-BUTYL]-CARBAMIC ACID 9H-FLUOREN-9-YLMETHYL ESTER], for which the half-inhibitory concentration (IC50) is < 10 µM.
Consider `Cc1ccc(NC(=O)C(CCCCCN)NC(=O)OCC2c3ccccc3-c3ccccc32)cc1` [Compound 104, (S)-(6-AMINO-1-P-TOLYLCARBAMOYL-HEXYL)-CARBAMIC ACID 9H-FLUOREN-9-YLMETHYL ESTER], for which the half-inhibitory concentration (IC50) is < 10 µM.
In turn, `NCCCCC(NC(=O)OCC1c2ccccc2-c2ccccc21)C(=O)NC1CCCCC1` (stereo in doubt) [Compound 22, (S)-(5-AMINO-1-CYCLOHEXYLCARBAMOYL-PENTYL)-CARBAMIC ACID 9H-FLUOREN-9-YLMETHYL ESTER] registered a concentration for half-maximal inhibition (IC50) of 10 to 50 µM.
For `NCCCC[C@@H](NC(=O)OCC1c2ccccc2-c2ccccc21)C(=O)Nc1ccc(C2CCCCC2)cc1` [Compound 128, (R)-[5-AMINO-1-(4-CYCLOHEXYL-PHENYLCARBAMOYL)-PENTYL]-CARBAMIC ACID 9H-FLUOREN-9-YLMETHYL ESTER] the value was < 10 µM; for `Cc1ccc(NC(=O)[C@H](CCCCN)NC(=O)Nc2ccc(OCc3ccccn3)cc2)cc1` [Compound 299, (S)-6-AMINO-2-{3-[4-(PYRIDIN-2-YLMETHOXY)-PHENYL]-UREIDO}-HEXANOIC ACID P-TOLYLAMIDE], 10 to 50 µM.
Take `Cc1ccc(NC(=O)[C@H](CCCNC(=O)CN)NC(=O)Nc2ccc(OCc3ccccc3)cc2)cc1` [Compound 322, (S)-5-(2-AMINO-ACETYLAMINO)-2-[3-(4-BENZYLOXY-PHENYL)-UREIDO]-PENTANOIC ACID P-TOLYLAMIDE]: the half-maximal inhibitory concentration (IC50) is 10 to 50 µM.
Consider `Cc1ccc(NC(=O)C(CCCC[N+](C)(C)C)NC(=O)OCC2c3ccccc3-c3ccccc32)cc1` (stereo not drawn) [Compound 110], for which the concentration for half-maximal inhibition (IC50) was > 50 µM.
Consider `NCCC[C@@H](NC(=O)OCC1c2ccccc2-c2ccccc21)C(=O)Nc1ccc(C2CCCCC2)cc1` [Compound 198, (R)-[4-AMINO-1-(4-CYCLOHEXYL-PHENYLCARBAMOYL)-BUTYL]-CARBAMIC ACID 9H-FLUOREN-9-YLMETHYL ESTER], for which the IC50 is < 10 µM.
For `Cc1ccc(NC(=O)C(CCCCN)NC(=O)CNCCc2c[nH]c3ccccc23)cc1` [Compound 335, (S)-6-AMINO-2-{2-[2-(1H-INDOL-3-YL)-ETHYLAMINO]-ACETYLAMINO}-HEXANOIC ACID P-TOLYLAMIDE] the value was > 50 µM; for `NCCCCCCNC(=O)[C@@H](NC(=O)OCC1c2ccccc2-c2ccccc21)c1ccccc1` [Compound 313, (S)-[(6-AMINO-HEXYLCARBAMOYL)-PHENYL-METHYL]-CARBAMIC ACID 9H-FLUOREN-9-YLMETHYL ESTER], 10 to 50 µM; for `Cc1ccc(NC(=O)[C@H](CCCCN)NC(=O)Nc2ccc(OCc3cccc([N+](=O)[O-])c3)cc2)cc1` [Compound 275, (S)-6-AMINO-2-{3-[4-(3-NITRO-BENZYLOXY)-PHENYL]-UREIDO}-HEXANOIC ACID P-TOLYLAMIDE], 10 to 50 µM.
Turning to `NCCCC[C@H](NC(=O)OCC1c2ccccc2-c2ccccc21)C(=O)Nc1ccc(F)cc1` [Compound 44, (S)-[5-AMINO-1-(4-FLUORO-PHENYLCARBAMOYL)-PENTYL]-CARBAMIC ACID 9H-FLUOREN-9-YLMETHYL ESTER], the IC50 is > 50 µM.
Consider `NCCCC[C@@H](NC(=O)NCc1ccc(Cl)c(Cl)c1)C(=O)Nc1ccc(C2CCCCC2)cc1` [Compound 165, (R)-6-AMINO-2-[3-(3,4-DICHLORO-BENZYL)-UREIDO]-HEXANOIC ACID (4-CYCLOHEXYL-PHENYL)-AMIDE], for which the half-inhibitory concentration (IC50) was 10 to 50 µM.
With `Cc1ccc(NC(=O)[C@H](CCCCN)NC(=O)Nc2ccc(OCc3ccc(Cl)cc3)cc2)cc1` [Compound 273, (S)-6-AMINO-2-{3-[4-(4-CHLORO-BENZYLOXY)-PHENYL]-UREIDO}-HEXANOIC ACID P-TOLYLAMIDE], the half-maximal inhibitory concentration (IC50) was < 10 µM.
For `Cc1ccc(NC(=O)[C@H](CCCCN)NC(=O)CNCc2ccc(F)cc2)cc1` [Compound 346, (S)-6-AMINO-2-[2-(4-FLUORO-BENZYLAMINO)-ACETYLAMINO]-HEXANOIC ACID P-TOLYLAMIDE] the value was > 50 µM; for `Cc1ccc(NC(=O)[C@H](CCCCN)NC(=O)COc2cccc(Cl)c2)cc1` [Compound 330, (S)-^6-AMINO-2-[2-(^3-CHLORO-PHENOXY)-ACETYLAMINO]-HEXANOIC ACID P-TOLYLAMIDE], > 50 µM; for `NCCCC[C@H](NC(=O)OCC1c2ccccc2-c2ccccc21)C(=O)Nc1cccc2[nH]ccc12` [Compound 208, (S)-[5-AMINO-1-(1H-INDOL-4-YLCARBAMOYL)-PENTYL]-CARBAMIC ACID 9H-FLUOREN-9-YLMETHYL ESTER], < 10 µM.
Take `Cc1ccc(NC(=O)C2CCCCN2C(=O)OCC2c3ccccc3-c3ccccc32)cc1` [Compound 122, (S)-2-P-TOLYLCARBAMOYL-PIPERIDINE-1-CARBOXYLIC ACID 9H-FLUOREN-9-YLMETHYL ESTER]: the IC50 was > 50 µM.
For `CC(C)(C)OC(=O)NCC(=O)NCc1ccccc1NC(=O)CNC(=O)OCC1c2ccccc2-c2ccccc21` [Compound 325, ({2-[2-(9H-FLUOREN-9-YLMETHOXYCARBONYLAMINO)-ACETYLAMINO]-BENZYLCARBAMOYL}-METHYL)-CARBAMIC ACID TERT-BUTYL ESTER] the value was > 50 µM; for `Cc1ccc(CNCC(=O)NC(CCCCN)C(=O)Nc2ccc(C)cc2)cc1` [Compound 340, (S)-6-AMINO-2-[2-(4-METHYL-BENZYLAMINO)-ACETYLAMINO]-HEXANOIC ACID P-TOLYLAMIDE], > 50 µM.
On to `Cc1ccc(NC(=O)C(CN)NC(=O)OCC2c3ccccc3-c3ccccc32)cc1` [Compound 103, (S)-(2-AMINO-1-P-TOLYLCARBAMOYL-ETHYL)-CARBAMIC ACID 9H-FLUOREN-9-YLMETHYL ESTER], for which the IC50 was > 50 µM.
Regarding `COC(=O)c1cccc(COc2ccc(NC(=O)NC(CCCCN)C(=O)Nc3ccc(C)cc3)cc2)c1` [Compound 276, (S)-3-{4-[3-(5-AMINO-1-P-TOLYLCARBAMOYL-PENTYL)-UREIDO]-PHENOXYMETHYL}-BENZOIC ACID METHYL ESTER], the half-maximal inhibitory concentration (IC50) was 10 to 50 µM.
Regarding `Cc1ccc(CNC(=O)NC(CCCCN)C(=O)Nc2ccc(C)cc2)cc1` [Compound 136, (S)-6-AMINO-2-[3-(4-METHYL-BENZYL)-UREIDO]-HEXANOIC ACID P-TOLYLAMIDE], the IC50 was > 50 µM.
Consider `CCNCC(=O)N1CCN(C(=O)OCC2c3ccccc3-c3ccccc32)C(CC(=O)Nc2ccc(C)cc2)C1` (stereo not drawn) [Compound 187, 4-(2-ETHYLAMINO-ACETYL)-2-(P-TOLYLCARBAMOYL-METHYL)-PIPERAZINE-1-CARBOXYLIC ACID 9H-FLUOREN-9-YLMETHYL ESTER], for which the IC50 was in the range of 10 to 50 µM.
For `COc1ccc2cc(C(=O)NC(CCCCN)C(=O)Nc3ccc(C)cc3)ccc2c1` [Compound 66, (S)-6-METHOXY-NAPHTHALENE-2-CARBOXYLIC ACID (5-AMINO-1-P-TOLYLCARBAMOYL-PENTYL)-AMIDE] the value was > 50 µM.
